From patent US20220162215A1, “COMPOSITIONS AND METHODS OF USING THE SAME FOR TREATMENT OF NEURODEGENERATIVE AND MITOCHONDRIAL DISEASE” (MITOKININ, INC., priority 2019, published 2022)
Read-outs that look alike come from different tables or passages of the source.

Columns and labels:
HeLa MKYP cells [1] = assay: Human mitophagy assay (HeLa MKYP, mtKeima FACS, FCCP/oligomycin); assay type: cell-based; conditions: for EC50 / activation at 1.6 µM: Homo sapiens, HeLa; for activation at 1.6 µM: 6 h, Table 2, % activation of mitophagy at 1.6 μM treatment of the compound, read-out: Potency at 1 μM F/O toxin*
Experimental: (§1) Briefly, HeLa MKYP cells were plated at 10,000 cells/well in 96 well plates along with compounds at various concentrations. Following 16 hrs of incubation, cells were treated with 1 uM FCCP/oligomycin for 6 hours, then analyzed via FACS for the presence of mitochondria in lysosomes (as determined by an emissions spectrum shift from the pH-sensitive mtKeima tag). Examples are shown in FIG. 1 through FIG. 13 below.

HeLa MKYP cells [2] = assay: Toxicity / cell death measured by DAPI staining (take-up); assay type: cell-based; conditions: 50 μM
Experimental: H2O2 treatment was performed as a control for cell death as measured by DAPI staining.
as §1, with “tag).” for “tag). Examples are shown in FIG. 1 through FIG. 13 below.”

[3] = Table 3, read-out: Potency at 1 μM F/O toxin* (EC50 of mitophagy activation)
[4] = Table 3 Supplement A, as measured in Table 3, read-out: Potency (EC50 Max Mitophagy) (μM)*

SMILES | EC50 (HeLa MKYP cells [1]; [3]) | EC50 (HeLa MKYP cells [1]; [4]) | Toxicity (% positive for DAPI takeup @ 50 μM) (HeLa MKYP cells [2]; Table 3) | Toxicity (% positive for DAPI take-up at 50 μM)* (HeLa MKYP cells [2]; Table 3 Supplement A) | also measured
FC(F)(F)c1cc2c(NC3CCN(Cc4ccccc4)CC3)ncnc2[nH]1 [Compound 78] | 21.4 µM | 21.4 µM | 43.9% | 43.86% | –
CCCCNc1ncnc2[nH]c(C3CC3)nc12 [Compound 29] | 18.8 µM | – | 16.2% | – | –
CC(C)(Nc1ncnc2[nH]c(C(F)(F)F)cc12)c1ccccc1 [Compound 10] | – | – | – | – | activation at 1.6 µM (HeLa MKYP cells [1]): 17%; Toxicity (% positive for DAPI takeup @ 50 μM) (HeLa MKYP cells [2]; Table 2): 5.6%
CCCCNc1ncnc2[nH]c(C3CC3)nc12 [Compound 34886, N-butyl-8-cyclopropyl-9H-purin-6-amine] | – | – | – | – | EC50 (HeLa MKYP cells [1]; Table 4, read-out: Potency (EC50 Max Mitophagy)): 9.1 µM; Toxicity (% positive for DAPI takeup @ 50 μM) (HeLa MKYP cells [2]; Table 4): 9.1%
FC(F)(F)c1cc2c(NC3COCc4ccccc43)ncnc2[nH]1 (centres unmarked) [Compound 34] | > 50 µM | – | 42.9% | – | –
Cc1nc2c(N[C@@H](C)c3ccccc3)ncnc2[nH]1 [Compound 74] | 4.6 µM | 4.65 µM | 31.9% | 31.93% | –
c1ccc2c(c1)OCC[C@@H]2Nc1ncnc2[nH]cnc12 [Compound 59] | 1.8 µM | 1.69 µM | 17.0% | 19.76% | –
COc1ccc2c(c1)CCCC2Nc1ncnc2[nH]c(C(F)(F)F)cc12 (centres unmarked) [Compound 14] | – | – | – | – | activation at 1.6 µM (HeLa MKYP cells [1]): 29.8%; Toxicity (% positive for DAPI takeup @ 50 μM) (HeLa MKYP cells [2]; Table 2): 95.5%
Clc1cccc(CNc2ncnc3nc[nH]c23)c1 [Compound 58] | 16 µM | 16 µM | 12.5% | 12.54% | –
CCCCNc1ncnc2[nH]c(-c3ccnn3C)cc12 [Compound 2] | – | – | – | – | Potency at 1 μM F/O toxin (HeLa MKYP cells [1]; Table 1, % activation of mitophagy at 6.3 μM treatment of the compound): 15.0%; Toxicity (% positive for DAPI take-up @ 50 μM) (HeLa MKYP cells [2]; Table 1): 94.6%
COc1cc(CNc2ncnc3[nH]c(C4CC4)nc23)ccn1 [Compound 35] | > 50 µM | – | 7.1% | – | –
COc1ccccc1CNc1ncnc2[nH]c(C(F)(F)F)cc12 [Compound 48] | 2 µM | – | 24.7% | – | –
c1ncc(CNc2ncnc3[nH]c(C4CC4)nc23)cn1 [EP-0036050, 8-cyclopropyl-N-(pyrimidin-5-ylmethyl)-9H-purin-6-amine] | – | > 25 µM | – | – | Toxicity (% positive for DAPI take-up at 50 μM)* (HeLa MKYP cells [2]; human): 7.06%
COc1ccc(CNc2ncnc3[nH]c(C(F)(F)F)cc23)c(OC)c1 [Compound 51] | 2.1 µM | – | 42.6% | – | –
CC(C)[C@@H](Nc1ncnc2[nH]c(C(F)(F)F)cc12)c1cncnc1 [Compound 26] | 6.9 µM | 6.85 µM | 6.8% | 6.82% | –
COc1ccccc1CNc1ncnc2nc[nH]c12 [Compound 56] | 10.8 µM | 10.8 µM | 12.4% | 12.42% | –
